Assay results: ChEMBL document CHEMBL5291721, “A preclinical secondary pharmacology resource illuminates target-adverse drug reaction associations of marketed drugs” (Nat Commun, 2023)

Columns and labels:
[1] = target: Delta-type opioid receptor (Homo sapiens, UniProt P41143)
[2] = target: T1, Type-1 angiotensin II receptor (Homo sapiens, UniProt P30556)
T1 sequence (P30556 whole entry): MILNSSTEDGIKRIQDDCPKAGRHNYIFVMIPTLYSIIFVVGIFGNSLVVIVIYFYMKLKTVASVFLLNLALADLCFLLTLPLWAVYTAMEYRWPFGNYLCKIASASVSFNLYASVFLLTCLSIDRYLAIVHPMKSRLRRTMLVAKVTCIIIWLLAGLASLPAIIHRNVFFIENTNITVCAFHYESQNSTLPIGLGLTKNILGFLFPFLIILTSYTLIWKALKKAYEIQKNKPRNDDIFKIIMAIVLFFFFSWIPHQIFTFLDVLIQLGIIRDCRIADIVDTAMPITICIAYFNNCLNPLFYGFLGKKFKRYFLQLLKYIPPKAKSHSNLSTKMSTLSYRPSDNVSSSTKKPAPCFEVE

[3] = target: D(3) dopamine receptor (Homo sapiens, UniProt P35462)
[4] = target: T2, Prostaglandin G/H synthase 1 (Rattus norvegicus, UniProt Q63921); assay type: functional
T2 sequence (Q63921 whole entry): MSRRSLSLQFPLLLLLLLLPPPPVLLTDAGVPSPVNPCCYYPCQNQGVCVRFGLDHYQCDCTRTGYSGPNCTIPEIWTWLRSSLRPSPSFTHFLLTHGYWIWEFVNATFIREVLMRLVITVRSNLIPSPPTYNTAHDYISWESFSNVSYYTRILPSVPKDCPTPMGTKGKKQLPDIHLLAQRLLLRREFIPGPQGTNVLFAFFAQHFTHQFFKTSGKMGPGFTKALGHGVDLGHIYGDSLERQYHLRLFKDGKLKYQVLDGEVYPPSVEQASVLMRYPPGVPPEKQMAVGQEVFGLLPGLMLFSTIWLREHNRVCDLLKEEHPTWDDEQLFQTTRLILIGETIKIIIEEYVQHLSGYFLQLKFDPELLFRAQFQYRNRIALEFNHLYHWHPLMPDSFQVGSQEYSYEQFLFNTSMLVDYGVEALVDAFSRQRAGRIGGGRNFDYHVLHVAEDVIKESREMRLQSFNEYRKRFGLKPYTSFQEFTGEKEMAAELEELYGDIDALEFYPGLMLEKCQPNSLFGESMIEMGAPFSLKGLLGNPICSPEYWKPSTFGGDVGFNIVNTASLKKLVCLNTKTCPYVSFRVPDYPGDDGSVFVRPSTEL

[5] = target: Gamma-aminobutyric acid receptor subunit alpha-1 (Rattus norvegicus, UniProt P62813); assay type: functional
Gamma-aminobutyric acid receptor subunit alpha-1, sequence (P62813 whole entry): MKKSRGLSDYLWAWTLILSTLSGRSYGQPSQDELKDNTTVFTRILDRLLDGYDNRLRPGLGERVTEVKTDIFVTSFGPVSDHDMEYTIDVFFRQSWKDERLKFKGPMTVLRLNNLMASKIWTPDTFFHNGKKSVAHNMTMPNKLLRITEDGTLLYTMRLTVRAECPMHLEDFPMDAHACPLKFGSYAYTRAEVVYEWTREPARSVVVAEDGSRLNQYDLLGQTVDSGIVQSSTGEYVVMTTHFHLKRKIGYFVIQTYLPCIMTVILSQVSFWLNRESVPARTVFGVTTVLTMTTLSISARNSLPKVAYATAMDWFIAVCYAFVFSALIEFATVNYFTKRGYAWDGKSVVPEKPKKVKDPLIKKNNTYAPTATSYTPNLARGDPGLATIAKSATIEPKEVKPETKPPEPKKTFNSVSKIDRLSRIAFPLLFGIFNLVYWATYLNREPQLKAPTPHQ

[6] = target: T3, Alpha-1A adrenergic receptor (Homo sapiens, UniProt P35348); assay type: functional, cell-based
T3 sequence (P35348 whole entry): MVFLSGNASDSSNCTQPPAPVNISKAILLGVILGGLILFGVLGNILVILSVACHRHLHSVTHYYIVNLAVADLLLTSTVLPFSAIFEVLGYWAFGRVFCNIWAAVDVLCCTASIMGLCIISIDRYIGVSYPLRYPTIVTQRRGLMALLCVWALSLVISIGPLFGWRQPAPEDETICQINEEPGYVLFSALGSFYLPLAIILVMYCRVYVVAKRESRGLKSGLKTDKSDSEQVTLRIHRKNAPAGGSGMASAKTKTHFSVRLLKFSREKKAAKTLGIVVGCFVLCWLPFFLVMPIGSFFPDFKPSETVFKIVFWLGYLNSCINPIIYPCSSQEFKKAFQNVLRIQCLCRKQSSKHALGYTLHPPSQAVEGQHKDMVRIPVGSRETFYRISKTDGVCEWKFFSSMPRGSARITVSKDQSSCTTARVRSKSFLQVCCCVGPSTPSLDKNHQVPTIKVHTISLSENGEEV

[7] = target: Beta-1 adrenergic receptor (Homo sapiens, UniProt P08588); assay type: functional
Beta-1 adrenergic receptor, sequence (P08588 whole entry): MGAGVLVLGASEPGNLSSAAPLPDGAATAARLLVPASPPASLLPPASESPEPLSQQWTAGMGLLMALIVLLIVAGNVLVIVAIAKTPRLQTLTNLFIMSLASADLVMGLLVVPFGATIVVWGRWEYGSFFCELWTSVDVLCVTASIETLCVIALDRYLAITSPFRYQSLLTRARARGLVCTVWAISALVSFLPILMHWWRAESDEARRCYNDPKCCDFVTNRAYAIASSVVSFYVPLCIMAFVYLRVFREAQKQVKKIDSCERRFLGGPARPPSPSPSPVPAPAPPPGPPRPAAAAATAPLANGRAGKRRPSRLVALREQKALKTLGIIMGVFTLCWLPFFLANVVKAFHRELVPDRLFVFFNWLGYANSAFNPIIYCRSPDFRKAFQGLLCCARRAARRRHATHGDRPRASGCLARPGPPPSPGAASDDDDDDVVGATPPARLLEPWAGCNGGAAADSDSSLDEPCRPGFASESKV

[8] = target: T4, 5-hydroxytryptamine receptor 2C (Homo sapiens, UniProt P28335)
T4 sequence (P28335 whole entry): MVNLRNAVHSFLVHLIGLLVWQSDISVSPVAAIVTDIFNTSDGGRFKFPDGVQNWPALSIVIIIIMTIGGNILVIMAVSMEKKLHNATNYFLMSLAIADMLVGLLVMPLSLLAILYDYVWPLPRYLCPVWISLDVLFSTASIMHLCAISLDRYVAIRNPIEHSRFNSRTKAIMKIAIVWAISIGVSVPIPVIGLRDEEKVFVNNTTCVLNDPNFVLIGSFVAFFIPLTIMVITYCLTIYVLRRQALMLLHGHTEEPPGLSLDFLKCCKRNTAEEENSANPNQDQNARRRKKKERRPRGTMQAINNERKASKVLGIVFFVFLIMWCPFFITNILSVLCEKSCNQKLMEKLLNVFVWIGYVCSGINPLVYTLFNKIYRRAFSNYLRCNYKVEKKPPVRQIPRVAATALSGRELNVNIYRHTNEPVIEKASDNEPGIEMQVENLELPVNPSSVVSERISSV

[9] = target: Vasopressin V2 receptor (Homo sapiens, UniProt P30518)
Vasopressin V2 receptor, sequence (P30518 whole entry): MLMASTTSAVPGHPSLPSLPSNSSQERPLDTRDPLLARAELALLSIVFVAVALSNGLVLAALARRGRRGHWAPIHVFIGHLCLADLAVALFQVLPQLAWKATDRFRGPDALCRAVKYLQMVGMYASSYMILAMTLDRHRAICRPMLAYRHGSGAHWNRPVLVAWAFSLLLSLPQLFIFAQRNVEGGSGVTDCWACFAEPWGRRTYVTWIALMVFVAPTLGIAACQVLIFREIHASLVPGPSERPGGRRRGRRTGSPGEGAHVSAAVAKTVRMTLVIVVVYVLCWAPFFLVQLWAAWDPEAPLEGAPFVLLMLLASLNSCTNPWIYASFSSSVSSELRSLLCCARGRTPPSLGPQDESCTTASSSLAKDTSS

[10] = target: Kappa-type opioid receptor (Homo sapiens, UniProt P41145)
Kappa-type opioid receptor, sequence (P41145 whole entry): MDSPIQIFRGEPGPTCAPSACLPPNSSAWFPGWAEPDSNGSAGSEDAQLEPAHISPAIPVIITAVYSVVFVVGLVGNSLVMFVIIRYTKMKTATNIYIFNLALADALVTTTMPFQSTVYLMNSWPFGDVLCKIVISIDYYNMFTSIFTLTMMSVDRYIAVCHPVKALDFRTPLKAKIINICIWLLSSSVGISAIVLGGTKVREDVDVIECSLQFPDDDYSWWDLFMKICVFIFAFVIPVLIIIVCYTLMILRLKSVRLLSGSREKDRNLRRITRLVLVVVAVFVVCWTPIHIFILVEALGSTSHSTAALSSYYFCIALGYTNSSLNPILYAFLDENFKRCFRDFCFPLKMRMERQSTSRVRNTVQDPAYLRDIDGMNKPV

[11] = target: Sodium-dependent noradrenaline transporter (Homo sapiens, UniProt P23975)
Sodium-dependent noradrenaline transporter, sequence (P23975 whole entry): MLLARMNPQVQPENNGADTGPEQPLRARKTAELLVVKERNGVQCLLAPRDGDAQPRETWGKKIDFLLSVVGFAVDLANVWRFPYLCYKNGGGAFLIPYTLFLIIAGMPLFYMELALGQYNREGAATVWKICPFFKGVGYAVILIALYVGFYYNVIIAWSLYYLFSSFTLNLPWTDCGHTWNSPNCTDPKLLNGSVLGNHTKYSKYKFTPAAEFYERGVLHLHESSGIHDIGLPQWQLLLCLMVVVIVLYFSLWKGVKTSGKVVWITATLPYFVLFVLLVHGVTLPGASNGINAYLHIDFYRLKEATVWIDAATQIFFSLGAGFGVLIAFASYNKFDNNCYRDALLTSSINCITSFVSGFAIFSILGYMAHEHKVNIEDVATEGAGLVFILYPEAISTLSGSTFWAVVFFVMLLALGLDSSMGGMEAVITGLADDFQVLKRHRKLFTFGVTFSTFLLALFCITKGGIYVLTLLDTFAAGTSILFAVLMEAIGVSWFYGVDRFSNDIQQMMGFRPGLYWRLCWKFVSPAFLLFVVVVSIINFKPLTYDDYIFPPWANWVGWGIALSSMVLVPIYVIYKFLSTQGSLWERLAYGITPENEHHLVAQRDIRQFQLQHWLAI

[12] = target: Beta-2 adrenergic receptor (Homo sapiens, UniProt P07550)
Beta-2 adrenergic receptor, sequence (P07550 whole entry): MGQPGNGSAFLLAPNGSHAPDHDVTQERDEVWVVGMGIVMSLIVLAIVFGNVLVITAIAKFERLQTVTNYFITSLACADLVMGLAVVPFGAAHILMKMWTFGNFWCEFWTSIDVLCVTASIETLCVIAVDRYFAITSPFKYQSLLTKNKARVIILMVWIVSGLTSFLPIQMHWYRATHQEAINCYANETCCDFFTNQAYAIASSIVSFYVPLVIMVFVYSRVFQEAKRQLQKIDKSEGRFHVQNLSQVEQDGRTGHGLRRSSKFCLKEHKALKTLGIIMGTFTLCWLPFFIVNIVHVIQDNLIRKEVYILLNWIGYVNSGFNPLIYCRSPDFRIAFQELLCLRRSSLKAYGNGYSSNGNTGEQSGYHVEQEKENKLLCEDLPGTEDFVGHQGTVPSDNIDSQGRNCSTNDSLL

[13] = target: 3',5'-cyclic-AMP phosphodiesterase 4D (Homo sapiens, UniProt Q08499); assay type: functional
3',5'-cyclic-AMP phosphodiesterase 4D, sequence (Q08499 whole entry): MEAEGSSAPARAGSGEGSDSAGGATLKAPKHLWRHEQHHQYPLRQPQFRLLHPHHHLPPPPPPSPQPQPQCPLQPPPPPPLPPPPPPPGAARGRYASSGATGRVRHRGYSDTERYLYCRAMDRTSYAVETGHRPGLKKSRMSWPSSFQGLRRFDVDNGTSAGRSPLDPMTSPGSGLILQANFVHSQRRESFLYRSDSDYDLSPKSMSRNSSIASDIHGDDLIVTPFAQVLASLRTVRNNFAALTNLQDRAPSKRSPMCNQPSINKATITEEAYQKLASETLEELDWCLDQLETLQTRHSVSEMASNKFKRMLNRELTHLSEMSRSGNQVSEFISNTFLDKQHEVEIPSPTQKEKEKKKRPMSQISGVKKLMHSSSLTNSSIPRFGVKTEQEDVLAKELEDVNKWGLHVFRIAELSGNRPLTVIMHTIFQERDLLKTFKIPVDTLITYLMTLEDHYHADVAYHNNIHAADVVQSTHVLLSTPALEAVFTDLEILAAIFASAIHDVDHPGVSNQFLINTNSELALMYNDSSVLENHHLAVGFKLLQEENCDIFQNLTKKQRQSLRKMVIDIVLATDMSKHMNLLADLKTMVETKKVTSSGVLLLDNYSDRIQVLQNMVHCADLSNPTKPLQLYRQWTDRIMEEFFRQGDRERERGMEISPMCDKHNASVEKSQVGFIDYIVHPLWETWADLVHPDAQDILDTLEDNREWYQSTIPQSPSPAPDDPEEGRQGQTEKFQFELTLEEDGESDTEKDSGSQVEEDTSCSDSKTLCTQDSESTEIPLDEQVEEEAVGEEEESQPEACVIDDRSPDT

[14] = target: Motilin receptor (Homo sapiens, UniProt O43193)
Motilin receptor, sequence (O43193 whole entry): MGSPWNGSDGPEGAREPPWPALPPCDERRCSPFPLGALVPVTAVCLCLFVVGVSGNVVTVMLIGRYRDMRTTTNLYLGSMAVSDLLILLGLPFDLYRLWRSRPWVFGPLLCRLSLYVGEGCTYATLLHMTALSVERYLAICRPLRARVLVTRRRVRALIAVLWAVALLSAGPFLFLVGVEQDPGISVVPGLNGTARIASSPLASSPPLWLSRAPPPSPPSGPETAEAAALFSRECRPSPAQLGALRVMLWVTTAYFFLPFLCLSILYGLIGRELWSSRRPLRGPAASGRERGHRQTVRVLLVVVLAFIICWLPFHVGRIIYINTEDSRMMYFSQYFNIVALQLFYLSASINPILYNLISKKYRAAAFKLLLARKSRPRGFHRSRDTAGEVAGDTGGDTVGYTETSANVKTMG

[15] = target: Voltage-dependent L-type calcium channel subunit alpha-1C (Rattus norvegicus, UniProt P22002); assay type: functional
[16] = target: Histamine H2 receptor (Homo sapiens, UniProt P25021); assay type: functional, cell-based
Histamine H2 receptor, sequence (P25021 whole entry): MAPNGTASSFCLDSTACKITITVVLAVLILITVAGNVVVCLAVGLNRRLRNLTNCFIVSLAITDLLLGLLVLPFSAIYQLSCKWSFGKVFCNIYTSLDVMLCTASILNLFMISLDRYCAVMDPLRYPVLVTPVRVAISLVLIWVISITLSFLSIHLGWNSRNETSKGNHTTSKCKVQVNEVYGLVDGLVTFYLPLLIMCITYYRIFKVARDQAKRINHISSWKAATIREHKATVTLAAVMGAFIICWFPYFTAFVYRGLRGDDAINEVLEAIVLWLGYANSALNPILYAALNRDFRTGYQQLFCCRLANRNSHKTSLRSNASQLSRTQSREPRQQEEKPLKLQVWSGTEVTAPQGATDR
Further: assay procedure not described here.

Delta-type opioid receptor, sequence (P41143 whole entry): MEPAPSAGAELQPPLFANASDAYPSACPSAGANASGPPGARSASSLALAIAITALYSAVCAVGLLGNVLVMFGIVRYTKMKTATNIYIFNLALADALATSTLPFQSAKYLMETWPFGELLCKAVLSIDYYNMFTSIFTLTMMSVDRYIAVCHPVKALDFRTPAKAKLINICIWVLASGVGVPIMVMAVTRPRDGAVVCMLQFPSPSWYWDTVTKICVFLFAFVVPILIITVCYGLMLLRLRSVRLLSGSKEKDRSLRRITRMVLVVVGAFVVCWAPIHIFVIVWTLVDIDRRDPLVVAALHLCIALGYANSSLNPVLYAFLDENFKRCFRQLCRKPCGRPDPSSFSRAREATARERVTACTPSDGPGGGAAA

SMILES | AC50 [1] | AC50 [2] | AC50 [3] | AC50 [4] | AC50 [5] | AC50 [6] | AC50 [7] | AC50 [8] | AC50 [9] | AC50 [10] | AC50 [11] | AC50 [12] | AC50 [13] | AC50 [14] | AC50 [15] | AC50 [16]
CCCCCCCCOc1ccccc1C(=O)Nc1ccc(C(=O)OCC[N+](C)(CC)CC)cc1 [OTILONIUM BROMIDE] | 29 µM | 20 µM | 2 µM | 14 µM | > 30 µM | 12 µM | 11 µM | 1.1 µM | 9.9 µM | 3.4 µM | 3.3 µM | 11 µM | 2.5 µM | 5.7 µM | 16 µM | > 30 µM
CN[C@@H](C)[C@H](O)c1ccccc1 [EPHEDRINE] | > 30 µM | > 30 µM | > 10 µM | > 30 µM | > 10 µM | 13 µM | > 10 µM | > 30 µM | > 30 µM | > 10 µM | > 10 µM | > 10 µM | > 30 µM | > 10 µM | > 10 µM | > 10 µM
CCCCCCCCCCCC[N+](C)(C)CCOc1ccccc1 [DOMIPHEN] | > 30 µM | 14 µM | 2.1 µM | > 30 µM | > 30 µM | > 30 µM | 3.1 µM | 1.1 µM | 7.3 µM | 3.6 µM | 1.4 µM | 15 µM | 12 µM | 3 µM | > 30 µM | > 30 µM
C=C1CC[C@@]2(O)[C@H]3Cc4ccc(O)c5c4[C@@]2(CCN3CC2CC2)[C@H]1O5 | – | > 30 µM | > 30 µM | > 30 µM | > 30 µM | > 30 µM | > 30 µM | > 30 µM | > 30 µM | – | > 30 µM | – | > 30 µM | > 30 µM | – | > 30 µM
C1COC(NC(C2CC2)C2CC2)=N1 [RILMENIDINE] | > 30 µM | > 30 µM | > 10 µM | > 30 µM | > 10 µM | 3.4 µM | > 10 µM | > 30 µM | > 30 µM | 1.72 µM | > 30 µM | > 10 µM | > 30 µM | > 10 µM | > 10 µM | > 10 µM
CN1CCc2cccc3c2[C@H]1Cc1ccc(O)c(O)c1-3 [APOMORPHINE] | > 30 µM | > 30 µM | – | 20.4 µM | > 10 µM | 0.32 µM | > 10 µM | 7.3 µM | > 30 µM | 19.4 µM | > 30 µM | > 10 µM | 2.2 µM | > 10 µM | > 10 µM | > 10 µM
C[C@H]1C[C@@H]2[C@H]([C@@H](O)C[C@@]3(C)[C@H]2CC[C@]3(O)C(=O)COC(=O)CCC(=O)O)[C@@]2(C)C=CC(=O)C=C12 [METHYLPREDNISOLONE HEMISUCCINATE] | > 30 µM | > 30 µM | > 30 µM | > 30 µM | > 30 µM | > 30 µM | > 30 µM | > 30 µM | > 30 µM | > 30 µM | > 30 µM | – | > 30 µM | > 30 µM | – | > 30 µM
CN1CC(=O)N2[C@H](c3ccc4c(c3)OCO4)c3[nH]c4ccccc4c3C[C@@H]2C1=O | > 30 µM | > 30 µM | > 30 µM | > 30 µM | > 10 µM | > 30 µM | > 10 µM | > 30 µM | > 30 µM | > 10 µM | > 30 µM | > 10 µM | – | > 10 µM | > 10 µM | > 10 µM
CCCCC(C)(O)C/C=C/[C@H]1[C@H](O)CC(=O)[C@@H]1CCCCCCC(=O)OC (some centres undefined) [MISOPROSTOL] | > 30 µM | > 30 µM | > 30 µM | > 30 µM | > 30 µM | > 30 µM | > 30 µM | > 10 µM | > 30 µM | > 30 µM | > 30 µM | – | > 30 µM | > 30 µM | – | > 30 µM
CC(C)[N+](C)(CCC(C(N)=O)(c1ccccc1)c1ccccc1)C(C)C [ISOPROPAMIDE] | > 30 µM | > 10 µM | > 30 µM | > 10 µM | > 10 µM | – | > 10 µM | > 30 µM | > 10 µM | > 10 µM | > 10 µM | > 10 µM | > 30 µM | > 10 µM | > 10 µM | > 10 µM
CN1CC[C@]23CCCC[C@H]2[C@H]1Cc1ccc(O)cc13 [LEVORPHANOL] | > 30 µM | > 10 µM | > 30 µM | > 10 µM | > 10 µM | – | > 10 µM | > 30 µM | > 10 µM | 5.85 µM | > 30 µM | > 10 µM | > 30 µM | > 10 µM | > 10 µM | > 30 µM
CC(=O)NS(=O)(=O)c1ccc(N)cc1 [SULFACETAMIDE] | > 30 µM | > 10 µM | > 30 µM | > 10 µM | > 10 µM | – | > 10 µM | > 30 µM | > 10 µM | > 10 µM | > 10 µM | > 10 µM | > 30 µM | > 10 µM | > 10 µM | > 10 µM
CN1C(=O)CC(c2ccccc2)C1=O (centres undefined) [PHENSUXIMIDE] | > 30 µM | > 10 µM | > 30 µM | > 10 µM | > 10 µM | – | > 10 µM | > 30 µM | > 10 µM | > 10 µM | > 10 µM | > 10 µM | > 30 µM | > 10 µM | > 10 µM | > 10 µM
